Structures can show the parent of a compound that is named as a salt.
Tested on: SARS-CoV-2 (USA-WA1/2020) in Calu-3 cells
Format: cell-based
Settings: Calu-3, 48 h; for dsRNA signal, AU High: high dose (10 µM); for dsRNA signal, AU Low: low dose (100 nM)

CC[C@@H](N)CNc1ccnc(-c2cc(-c3cnn(C)c3)ccc2O)n1.Cl.Cl [CRT 0066101] was tested, and the “dsRNA signal, AU High” value was 0.0 AU and the “dsRNA signal, AU Low” value was 45629.7 AU.

O=C(O)c1ccc2c(c1)nc(Nc1cccc(Cl)c1)c1ccncc12 [CX-4945 (Silmitasertib)] was tested, and the “dsRNA signal, AU High” value was 35326.5 AU and the “dsRNA signal, AU Low” value was 21811.4 AU.

For CN1CCCN(C(=O)c2cccc(-c3ccc(/C=C4/C(=O)Nc5ccc(Cl)cc54)o3)c2)CC1 [CX-6258], the “dsRNA signal, AU High” value was 0.0 AU and the “dsRNA signal, AU Low” value was 9957.5 AU.

With COc1cc2nccc(Oc3ccc(NC(=O)C4(C(=O)Nc5ccc(F)cc5)CC4)cc3)c2cc1OC [Cabozantinib (XL184, BMS-907351)] the “dsRNA signal, AU High” value was 13075.8 AU and the “dsRNA signal, AU Low” value was 39205.8 AU.

For COc1cc2nccc(Oc3ccc(NC(=O)C4(C(=O)Nc5ccc(F)cc5)CC4)cc3)c2cc1OC.O=C(O)C[C@H](O)C(=O)O [Cabozantinib malate (XL184)], the “dsRNA signal, AU High” value was 148.7 AU and the “dsRNA signal, AU Low” value was 24276.1 AU.

In the case of COc1cc2c(Oc3ccc4[nH]c(C)cc4c3F)ncnc2cc1OCCCN1CCCC1 [Cediranib (AZD217)], the “dsRNA signal, AU High” value was 1359.3 AU and the “dsRNA signal, AU Low” value was 15765.2 AU.

With CCS(=O)(=O)N1CCN(c2ccc(Nc3ncc(C(N)=O)c(NC4CC4)n3)cc2)CC1 [Cerdulatinib (PRT062070)] the “dsRNA signal, AU High” value was 60131.0 AU and the “dsRNA signal, AU Low” value was 21245.1 AU.

COc1ccc2c(c[n+](C)c3c4cc5c(cc4ccc23)OCO5)c1OC [Chelerythrine Chloride] was tested, and the “dsRNA signal, AU High” value was 10306.1 AU and the “dsRNA signal, AU Low” value was 22120.5 AU.

For CCN(CC)CCCC(C)Nc1ccnc2cc(Cl)ccc12 (centres unmarked) [Chloroquine diphosphate], the “dsRNA signal, AU High” value was 4180.7 AU and the “dsRNA signal, AU Low” value was 1072.6 AU.

In the case of O=C(c1ccc(F)c(F)c1Nc1ccc(I)cc1F)N1CC(O)([C@@H]2CCCCN2)C1 [Cobimetinib], the “dsRNA signal, AU High” value was 1412.8 AU and the “dsRNA signal, AU Low” value was 21814.8 AU.

In the case of O=C(O)c1cc(=O)c2c(OCC(O)COc3cccc4oc(C(=O)O)cc(=O)c34)cccc2o1 [Cromolyn sodium], the “dsRNA signal, AU High” value was 64024.7 AU and the “dsRNA signal, AU Low” value was 17957.1 AU.

CC(C)(O)/C=C/C(=O)[C@](C)(O)[C@H]1[C@H](O)C[C@@]2(C)[C@@H]3CC=C4[C@@H](C=C(O)C(=O)C4(C)C)[C@]3(C)C(=O)C[C@]12C [Cucurbitacin I] was tested, and the “dsRNA signal, AU High” value was 39627.9 AU and the “dsRNA signal, AU Low” value was 39750.1 AU.

In the case of C=C1C[C@@]2(O)O[C@@]3(C[C@H]2C(C)C)[C@@H](C)CC[C@@H]13 [Curcumol], the “dsRNA signal, AU High” value was 0.0 AU and the “dsRNA signal, AU Low” value was 41441.3 AU.

C[C@@H]1C(=O)O[C@H](C)[C@H]1C[C@@H](O)[C@](C)(O)[C@H]1CC[C@@]2(O)C3=CC(=O)[C@@H]4C[C@@H](O)[C@@H](O)C[C@]4(C)[C@H]3CC[C@]12C [Cyasterone] was tested, and the “dsRNA signal, AU High” value was 81.6 AU and the “dsRNA signal, AU Low” value was 11248.2 AU.

In the case of NC(=O)c1ccc(-c2nc(-c3ccc4c(c3)OCCO4)c(-c3ccccn3)[nH]2)cc1 [D4476], the “dsRNA signal, AU High” value was 6178.6 AU and the “dsRNA signal, AU Low” value was 10405.5 AU.

With Nc1cccc(S(=O)(=O)N2CCCN(S(=O)(=O)c3ccc4c(c3)OCCO4)CC2)c1 [DASA-58] the “dsRNA signal, AU High” value was 7492.3 AU and the “dsRNA signal, AU Low” value was 8577.3 AU.

With NC(=O)c1ccccc1Nc1ccnc(Nc2cccc(O)c2)n1 [DB07268] the “dsRNA signal, AU High” value was 10652.5 AU and the “dsRNA signal, AU Low” value was 37894.5 AU.

In the case of O=C(O)C(Cl)Cl [DCA], the “dsRNA signal, AU High” value was 2582.6 AU and the “dsRNA signal, AU Low” value was 13605.1 AU.

With CCn1c(=O)c(-c2cc(NC(=O)Nc3ccccc3)c(F)cc2Br)cc2cnc(NC)cc21 [DCC-2618] the “dsRNA signal, AU High” value was 31390.7 AU and the “dsRNA signal, AU Low” value was 17341.0 AU.

In the case of O=C(NCCN1CCCC1)c1cc(-c2ccc(CN3CCOCC3)cc2)nc2ccc(F)cc12 [DDD107498], the “dsRNA signal, AU High” value was 38942.1 AU and the “dsRNA signal, AU Low” value was 5409.3 AU.

CC(C)Oc1ccc(-c2cnc3c(-c4ccnc5ccccc45)cnn3c2)cc1 [DMH-1] was tested, and the “dsRNA signal, AU High” value was 13545.0 AU and the “dsRNA signal, AU Low” value was 45359.2 AU.

In the case of CC(C)(C)c1nc(-c2cccc(NS(=O)(=O)c3c(F)cccc3F)c2F)c(-c2ccnc(N)n2)s1.CS(=O)(=O)O [Dabrafenib Mesylate (GSK-2118436)], the “dsRNA signal, AU High” value was 27414.0 AU and the “dsRNA signal, AU Low” value was 0.0 AU.

COc1cc2ncnc(Nc3ccc(F)c(Cl)c3)c2cc1NC(=O)/C=C/CN1CCCCC1 [Dacomitinib (PF299804, PF299)] was tested, and the “dsRNA signal, AU High” value was 0.0 AU and the “dsRNA signal, AU Low” value was 7030.9 AU.

For CNC(=O)c1ccc(Nc2ncc(C(F)(F)F)c(NCc3nccnc3N(C)S(C)(=O)=O)n2)cc1 [Defactinib], the “dsRNA signal, AU High” value was 31683.7 AU and the “dsRNA signal, AU Low” value was 56452.3 AU.

In the case of CCCCOc1cc(C(=O)NCCN(CC)CC)c2ccccc2n1.Cl [Dibucaine (Cinchocaine) HCl], the “dsRNA signal, AU High” value was 9319.1 AU and the “dsRNA signal, AU Low” value was 11778.5 AU.

CCCC(=O)Nc1ncnc2c1ncn2[C@@H]1O[C@@H]2COP(=O)([O-])O[C@H]2[C@H]1OC(=O)CCC.[Na+] [Dibutyryl-cAMP, sodium salt] was tested, and the “dsRNA signal, AU High” value was 10702.1 AU and the “dsRNA signal, AU Low” value was 55803.3 AU.

In the case of O=C1c2c(O)cc(O)cc2O[C@H](c2cc(O)c(O)c(O)c2)[C@H]1O [Dihydromyricetin], the “dsRNA signal, AU High” value was 20863.8 AU and the “dsRNA signal, AU Low” value was 12380.4 AU.

In the case of CCc1cnn2c(NCc3ccc[n+]([O-])c3)cc(N3CCCC[C@H]3CCO)nc12 [Dinaciclib (SCH727965)], the “dsRNA signal, AU High” value was 10476.7 AU and the “dsRNA signal, AU Low” value was 0.0 AU.

For C[C@@H]1CC[C@@]2(OC1)O[C@H]1C[C@H]3[C@@H]4CC=C5C[C@@H](O)CC[C@]5(C)[C@H]4CC[C@]3(C)[C@H]1[C@@H]2C [Diosgenin], the “dsRNA signal, AU High” value was 0.0 AU and the “dsRNA signal, AU Low” value was 2764.9 AU.

With Cl.Cl.c1cc(-c2cnn3cc(-c4ccc(OCCN5CCCCC5)cc4)cnc23)ccn1 [Dorsomorphin 2HCl] the “dsRNA signal, AU High” value was 1809.4 AU and the “dsRNA signal, AU Low” value was 18817.3 AU.

c1cc(-c2cnn3cc(-c4ccc(OCCN5CCCCC5)cc4)cnc23)ccn1 [Dorsomorphin (Compound C)] was tested, and the “dsRNA signal, AU High” value was 6395.6 AU and the “dsRNA signal, AU Low” value was 1963.8 AU.

In the case of CN1CCN(c2ccc3nc(-c4c(N)c5c(F)cccc5[nH]c4=O)[nH]c3c2)CC1 [Dovitinib (TKI-258, CHIR-258)], the “dsRNA signal, AU High” value was 15765.0 AU and the “dsRNA signal, AU Low” value was 183.2 AU.

CC(O)C(=O)O.CC(O)C(=O)O.CN1CCN(c2ccc3nc(-c4c(N)c5c(F)cccc5[nH]c4=O)[nH]c3c2)CC1 [Dovitinib Dilactic acid] was tested, and the “dsRNA signal, AU High” value was 47107.5 AU and the “dsRNA signal, AU Low” value was 17331.2 AU.

With O=C(Nc1nccs1)C(c1cc(F)ccc1O)N1Cc2ccccc2C1=O (centres unmarked) [EAI045] the “dsRNA signal, AU High” value was 0.0 AU and the “dsRNA signal, AU Low” value was 14269.6 AU.

For O=c1cc(CN2CCOCC2)occ1OCCCCCSc1ccnc2cc(C(F)(F)F)ccc12 [EHT 1864], the “dsRNA signal, AU High” value was 22471.9 AU and the “dsRNA signal, AU Low” value was 17099.7 AU.

With CCn1c2ccccc2c2cc(Nc3ccnc(NCCCN4CCOCC4)n3)ccc21 [EHop-016] the “dsRNA signal, AU High” value was 0.0 AU and the “dsRNA signal, AU Low” value was 44568.8 AU.

For CCc1c(C(=O)NNC(=O)C(O)c2cc(F)cc(F)c2)ccc(O)c1C (centres unmarked) [EMD638683], the “dsRNA signal, AU High” value was 288.1 AU and the “dsRNA signal, AU Low” value was 20264.2 AU.

CN1CCC(COc2cnc(-c3cccc(Cn4nc(-c5cccc(C#N)c5)ccc4=O)c3)nc2)CC1 [EMD-1214063] was tested, and the “dsRNA signal, AU High” value was 14120.6 AU and the “dsRNA signal, AU Low” value was 47689.1 AU.

In the case of Cc1cccc(-c2[nH]c(CNc3ccccc3F)nc2-c2ccc3ncnn3c2)n1 [EW-7197], the “dsRNA signal, AU High” value was 168.7 AU and the “dsRNA signal, AU Low” value was 7205.0 AU.

In the case of O=c1oc2c(O)c(O)cc3c(=O)oc4c(O)c(O)cc1c4c23 [Ellagic acid], the “dsRNA signal, AU High” value was 14274.7 AU and the “dsRNA signal, AU Low” value was 14007.9 AU.

With Cc1cc(O)c2c(c1)C(=O)c1cc(O)cc(O)c1C2=O [Emodin] the “dsRNA signal, AU High” value was 20341.5 AU and the “dsRNA signal, AU Low” value was 11688.8 AU.

C#Cc1cccc(Nc2ncnc3cc(OCCOC)c(OCCOC)cc23)c1 [Erlotinib Hydrochloride] was tested, and the “dsRNA signal, AU High” value was 3624.7 AU and the “dsRNA signal, AU Low” value was 52457.7 AU.

C#Cc1cccc(Nc2ncnc3cc(OCCOC)c(OCCOC)cc23)c1 [Erlotinib] was tested, and the “dsRNA signal, AU High” value was 7272.0 AU and the “dsRNA signal, AU Low” value was 15317.7 AU.

With CCOC(=O)c1cc(O)c(O)c(O)c1 [Ethyl gallate] the “dsRNA signal, AU High” value was 180.5 AU and the “dsRNA signal, AU Low” value was 60976.1 AU.

With Cc1ccc(-c2c(C(=O)CF)n(CCCO)c3ncnc(N)c23)cc1 [FMK] the “dsRNA signal, AU High” value was 36246.0 AU and the “dsRNA signal, AU Low” value was 14082.6 AU.

In the case of Nc1[nH]nc2nnc(-c3c(-c4ccccc4)nn4ccccc34)cc12 [FR 180204], the “dsRNA signal, AU High” value was 10806.0 AU and the “dsRNA signal, AU Low” value was 12597.7 AU.

In the case of CCn1c(=O)c(-c2ccc(-c3cncs3)cc2Cl)cc2cnc(Nc3ccc(N4CCN(C)CC4)cc3)nc21 [FRAX597], the “dsRNA signal, AU High” value was 1538.8 AU and the “dsRNA signal, AU Low” value was 50796.9 AU.

CCCCCCCCc1ccc(CCC(N)(CO)CO)cc1 [Fingolimod (FTY720)] was tested, and the “dsRNA signal, AU High” value was 0.0 AU and the “dsRNA signal, AU Low” value was 13731.4 AU.

For CN1CC[C@H](c2c(O)cc(O)c3c(=O)cc(-c4ccccc4Cl)oc23)[C@H](O)C1 [Flavopiridol], the “dsRNA signal, AU High” value was 411.3 AU and the “dsRNA signal, AU Low” value was 2633.8 AU.

With O=C(O)c1ccccc1Nc1cccc(C(F)(F)F)c1 [Flufenamic acid] the “dsRNA signal, AU High” value was 29762.4 AU and the “dsRNA signal, AU Low” value was 15182.6 AU.

For O=C(O)/C=C/C(=O)O [Fumalic acid], the “dsRNA signal, AU High” value was 4691.7 AU and the “dsRNA signal, AU Low” value was 6874.3 AU.

O=C(NOCCO)c1ccc2cncn2c1Nc1ccc(I)cc1F [GDC-0623] was tested, and the “dsRNA signal, AU High” value was 0.0 AU and the “dsRNA signal, AU Low” value was 1908.1 AU.

With OCCn1cc(-c2ccc3c(c2)CC/C3=N\O)c(-c2ccncc2)n1 [GDC-0879] the “dsRNA signal, AU High” value was 7041.8 AU and the “dsRNA signal, AU Low” value was 38492.2 AU.

CS(=O)(=O)N1CCN(Cc2cc3nc(-c4cccc5[nH]ncc45)nc(N4CCOCC4)c3s2)CC1.CS(=O)(=O)O.CS(=O)(=O)O [GDC-0941 dimethanesulfonate] was tested, and the “dsRNA signal, AU High” value was 20950.7 AU and the “dsRNA signal, AU Low” value was 35251.8 AU.

For CS(=O)(=O)N1CCN(Cc2cc3nc(-c4cccc5[nH]ncc45)nc(N4CCOCC4)c3s2)CC1 [GDC-0941], the “dsRNA signal, AU High” value was 590.8 AU and the “dsRNA signal, AU Low” value was 57346.3 AU.
